Data on ten compounds can be found in US7405240B2, “Substituted cyclopentanes or cyclopentanones as therapeutic agents” (Allergan, Inc., priority 2006, dated 2008).

The pEC50 is −log10 of the EC50, conventionally taken in molar units. By pKi is commonly meant the negative decadic logarithm of the Ki, by convention in mol/L.

For one data set, the system named is normotensive dogs. Put plainly: Intraocular pressure and ocular surface hyperemia in normotensive dogs. The class given is in vivo, dog. On the set-up: maximum OSH score: scale not given here. The conditions noted are these: once daily for 5 days; for change in vivo at 0.05 % / change in vivo at 0.1 %: Canis lupus familiaris, topical, 120 h, read-out: maximum IOP decrease from baseline. How it is done: (§1) (Z)-7-[(1R,2S,3R,5R)-5-Chloro-2-(3,5-dichloro-phenoxymethyl)-3-hydroxy-cyclopentyl]-hept-5-enoic acid (15b) was tested at multiple concentrations in normotensive dogs, dosing once daily for 5 days. At 0.05%, the maximum IOP decrease from baseline was 4.3 mmHg (30%) at 6 h; the maximum OSH score was 0.6 at 6 h. […] This compound was also tested in laser-induced hypertensive monkeys, using one single day dose. At 0.1%, the maximum IOP decrease from baseline was 6 mmHg (19%) at 6 h.
(§2) (Z)-7-[(1R,2S,3R,5R)-5-Chloro-2-(3,5-dichloro-phenoxymethyl)-3-hydroxy-cyclopentyl]-hept-5-enoic acid isopropyl ester (42b) was tested in normotensive dogs at 0.05%, dosing once daily for 5 days. The maximum intraocular pressure (IOP) decrease from baseline was 3 mmHg (19%) at 6 h; the maximum ocular surface hyperemia (OSH) score was 0.6 at 74 h. This compound was also tested in laser-induced hypertensive monkeys, using one single day dose. At 0.01%, the maximum IOP decrease from baseline was 6 mmHg (16%) at 6 h.

The test system of data set [1] is laser-induced hypertensive monkeys. Put plainly: Intraocular pressure in laser-induced hypertensive monkeys. The class given is in vivo, monkey. As to conditions: one single day dose. As for the experimental part: as §1, §2
The target of data set [2] is T1, hEP2 (Homo sapiens, UniProt P43116). Put plainly: FLIPR calcium signal, hEP2. The class given is cell-based. Details: expressed in transfected cells; host or cells: HEK-293(EBNA). The conditions noted are these: HEK-293(EBNA) cells expressing hEP2/Gqs5. The method in brief: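 HEK-293(EBNA) cells stably expressing a single human prostaglandin receptor (hDP/Gqs5 chimera for DP), Fluo-4 AM loaded, in HBSS-HEPES pH 7.4 at 37 °C. Peak calcium fluorescence scaled to buffer and receptor standard agonist; 10^−5 M single-point or 10^−5–10^−11 M curves, duplicates, n≥3.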

In data set [3] the target is T2, hEP4 (Homo sapiens, UniProt P35408). Put plainly: FLIPR calcium signal, hEP4. The class given is cell-based. Details: expressed in transfected cells; host or cells: HEK-293(EBNA). As to conditions: HEK-293(EBNA) cells expressing hEP4/Gqs5. As for the experimental part:
Methods for FLIPR™ Studies
HEK-293(EBNA) cells, stably expressing one type or subtype of recombinant human prostaglandin receptors (prostaglandin receptors expressed: hDP/Gqs5; hEP1; hEP2/Gqs5; hEP3A/Gqi5; hEP4/Gqs5; hFP; hIP; hTP), were cultured in 100 mm culture dishes in high-glucose DMEM medium containing 10% fetal bovine serum, 2 mM 1-glutamine, 250 μg/ml geneticin (G418) and 200 μg/ml hygromycin B as selection markers, and 100 units/ml penicillin G, 100 μg/ml streptomycin and 0.25 μg/ml amphotericin B.
Cells were seeded at a density of 5×10^4 cells per well in Biocoat® Poly-D-lysine-coated black-wall, clear-bottom 96-well plates (Becton-Dickinson) and allowed to attach overnight in an incubator at 37° C. Cells were then washed two times with HBSS-HEPES buffer (Hanks Balanced Salt Solution without bicarbonate and phenol red, 20 mM HEPES, pH 7.4) using a Denley Cellwash plate washer (Labsystems). After 45 minutes of dye-loading in the dark, using the calcium-sensitive dye Fluo-4 AM at a final concentration of 2 μM, plates were washed four times with HBSS-HEPES buffer to remove excess dye leaving 100 μl in each well. Plates were re-equilibrated to 37° C. for a few minutes.
Cells were excited with an Argon laser at 488 nm, and emission was measured through a 510-570 nm bandwidth emission filter (FLIPR™, Molecular Devices, Sunnyvale, Calif.). Drug solution was added in a 50 μl volume to each well to give the desired final concentration. The peak increase in fluorescence intensity was recorded for each well. On each plate, four wells each served as negative (HBSS-HEPES buffer) and positive controls (standard agonists: BW245C (hDP); PGE2 (hEP1; hEP2/Gqs5; hEP3A/Gqi5; hEP4/Gqs5); PGF2α (hFP); carbacyclin (hIP); U-46619 (hTP), depending on receptor). The peak fluorescence change in each drug-containing well was then expressed relative to the controls.
Compounds were tested in a high-throughput (HTS) or concentration-response (CoRe) format. In the HTS format, forty-four compounds per plate were examined in duplicates at a concentration of 10^−5 M. To generate concentration-response curves, four compounds per plate were tested in duplicates in a concentration range between 10^−5 and 10^−11 M. The duplicate values were averaged. In either, HTS or CoRe format each compound was tested on at least 3 separate plates using cells from different passages to give an n≧3.

Data set [4] concerns the target T2, hEP4. Put plainly: Radioligand binding, EP4 receptor. Details: expressed in transfected cells; host or cells: HEK-293. As to conditions: [3H]PGE2, HEK-293 cells expressing EP4. The method in brief:
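HEK-293 membranes stably expressing human EP4, in TME buffer pH 7.4; competition vs 5 nM [3H]-PGE2, 60 min at 25 °C, stopped by GF/B filtration. Non-specific binding defined with 10^−5 M unlabeled PGE2; duplicates, at least three experiments.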

Data set [5] has as its target T1, hEP2. Put plainly: cAMP assay, hEP2. The format is cell-based. (cAMP levels reflect the balance of adenylyl cyclase and phosphodiesterase activity.)
In data set [6] the target is T1, hEP2. Put plainly: Competition binding, [3H]PGE2, human EP2 receptors. On the set-up: expressed in transfected cells; host or cells: HEK 293. The conditions noted are these: [3H]PGE2, HEK 293 cells stably expressing human EP2; read-out: hEP2 Ki. The essentials: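 HEK 293 membranes or cells stably expressing human EP2 were incubated with 10 nM [3H]PGE2 and test compound in HBSS/20 mM Hepes pH 7.3, 60 min at 23° C, then filtered. Non-specific binding defined with 10 μM PGE2; IC50 from single-site fit converted to Ki using KD 40 nM.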

Where [7] appears, read: Primates, topical, 0.1%, read-out: maximum IOP decrease from baseline.

pEC50, pKi: −log10 of the molar value.

T1 sequence (P43116 whole entry): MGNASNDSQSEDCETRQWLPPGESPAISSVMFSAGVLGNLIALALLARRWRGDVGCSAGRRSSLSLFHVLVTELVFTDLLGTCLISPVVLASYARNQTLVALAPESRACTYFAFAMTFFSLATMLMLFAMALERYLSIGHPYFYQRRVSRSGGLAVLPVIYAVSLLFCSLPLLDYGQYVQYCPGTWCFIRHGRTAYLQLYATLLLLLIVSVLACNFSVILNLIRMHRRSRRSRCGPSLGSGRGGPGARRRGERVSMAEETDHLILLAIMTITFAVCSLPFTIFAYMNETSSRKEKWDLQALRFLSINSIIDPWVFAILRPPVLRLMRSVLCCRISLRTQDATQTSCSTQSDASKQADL
T2 sequence (P35408 whole entry): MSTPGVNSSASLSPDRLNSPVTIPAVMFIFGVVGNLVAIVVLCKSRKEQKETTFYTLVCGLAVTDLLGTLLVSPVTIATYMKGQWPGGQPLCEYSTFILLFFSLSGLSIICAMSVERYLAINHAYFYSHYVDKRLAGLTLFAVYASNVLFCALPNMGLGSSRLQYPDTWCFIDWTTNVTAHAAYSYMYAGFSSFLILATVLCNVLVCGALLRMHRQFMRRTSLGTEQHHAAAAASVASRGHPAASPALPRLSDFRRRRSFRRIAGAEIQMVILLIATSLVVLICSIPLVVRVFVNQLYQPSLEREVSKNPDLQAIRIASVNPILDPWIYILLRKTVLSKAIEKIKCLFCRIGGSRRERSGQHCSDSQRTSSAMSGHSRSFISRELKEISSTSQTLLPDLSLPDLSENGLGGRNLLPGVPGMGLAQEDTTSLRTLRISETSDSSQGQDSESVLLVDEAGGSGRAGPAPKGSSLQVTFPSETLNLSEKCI

Take `O=C(O)CCC/C=C\C[C@@H]1[C@@H](COc2cc(Cl)cc(Cl)c2)[C@H](O)C[C@H]1Cl` [Example 15b, (Z)-7-[(1R,2S,3R,5R)-5-Chloro-2-(3,5-dichloro-phenoxymethyl)-3-hydroxy-cyclopentyl]-hept-5-enoic acid]: in the data set with normotensive dogs (0.05%), the “maximum IOP decrease from baseline” value is 4.3 mmHg, the “maximum OSH score” value stood at 0.6, the “time of maximum IOP decrease” value came out at 6 h and the “time of maximum OSH score” value is on record as 6 h. In addition, in the data set on normotensive dogs (0.05%), the change in vivo at 0.05 % stood at 30%. Also, in the data set on normotensive dogs (0.1%), the “maximum IOP decrease from baseline” value turned out to be 4.8 mmHg, the “maximum OSH score” value stood at 1.3, the “time of maximum IOP decrease” value was determined as 102 h and the “time of maximum OSH score” value is recorded as 6 h. Besides, the change in vivo at 0.1 % with normotensive dogs (0.1%) worked out at 34%. Further, in data set [1] (0.1%), the “maximum IOP decrease from baseline” value was 6 mmHg and the “time of maximum IOP decrease” value is on record as 6 h. The change in vivo at 0.1 % in data set [1] (setting [7]) came out at 19%.
In the case of `O=C(O)CCC/C=C\C[C@@H]1[C@@H](COc2ccc(Cl)c3ccccc23)[C@H](O)C[C@H]1Cl` [Example 40, (Z)-7-[(1R,2S,3R,5R)-5-Chloro-2-(4-chloro-naphthalen-1-yloxymethyl)-3-hydroxy-cyclopentyl]-hept-5-enoic acid], the pEC50 on hEP2 [2] is 7.54; on hEP4 [3] it was 5.23; on hEP2 [5], 9.15. The pKi was 6.31 at hEP4 [4] and 8.70 on hEP2 [6].
As to `O=C(O)CCC/C=C\C[C@@H]1[C@@H](COc2cc(C(F)(F)F)cc(Cl)c2F)[C@H](O)C[C@H]1Cl` [Example 41, (Z)-7-[(1R,2S,3R,5R)-5-Chloro-2-(3-chloro-2-fluoro-5-trifluoromethyl-phenoxymethyl)-3-hydroxy-cyclopentyl]-hept-5-enoic acid], the negative-log EC50 (pEC50) is 7.89 at hEP2 [2], under 5.00 on hEP4 [3] and 8.89 at hEP2 [5]. The negative-log Ki (pKi) is 5.77 on hEP4 [4] and 7.80 on hEP2 [6].
Regarding `CC(C)OC(=O)CCC/C=C\C[C@@H]1[C@@H](COc2cc(Cl)cc(Cl)c2)[C@H](O)C[C@H]1Cl` [Example 42b, (Z)-7-[(1R,2S,3R,5R)-5-Chloro-2-(3,5-dichloro-phenoxymethyl)-3-hydroxy-cyclopentyl]-hept-5-enoic acid isopropyl ester], in the data set on normotensive dogs (0.05%), the “maximum IOP decrease from baseline” value was 3 mmHg, the “maximum OSH score” value came out at 0.6, the “time of maximum IOP decrease” value is recorded as 6 h and the “time of maximum OSH score” value is on record as 74 h. In addition, the change in vivo at 0.05 % in the data set on normotensive dogs (0.05%) turned out to be 19%. Also, in data set [1] (0.01%), the “maximum IOP decrease from baseline” value is given as 6 mmHg and the “time of maximum IOP decrease” value turned out to be 6 h. Further, the change in vivo at 0.01 % in data set [1] (Primates, topical, 0.01%, read-out: maximum IOP decrease from baseline) amounted to 16%.
In the case of `CC(C)OC(=O)CCC/C=C\C[C@@H]1[C@@H](COc2ccc(CO)cc2)[C@H](O)C[C@H]1Cl` [Example 42bb, (Z)-7-[(1R,2S,3R,5R)-5-Chloro-3-hydroxy-2-(4-hydroxymethyl-phenoxymethyl)-cyclopentyl]-hept-5-enoic acid isopropyl ester], in the data set on normotensive dogs (0.1%), the “maximum IOP decrease from baseline” value worked out at 4.6 mmHg, the “maximum OSH score” value was found to be 0.6, the “time of maximum IOP decrease” value amounted to 100 h and the “time of maximum OSH score” value is listed as 30 h. In addition, the change in vivo at 0.1 % with normotensive dogs (0.1%) was found to be 33%. For the same compound, in data set [1] (0.1%), the “maximum IOP decrease from baseline” value is 5.5 mmHg and the “time of maximum IOP decrease” value was 6 h. The change in vivo at 0.1 % in data set [1] (setting [7]) stood at 16%.
Consider `CCCC(O)c1cccc(OC[C@@H]2[C@@H](C/C=C\CCCC(=O)O)[C@H](Cl)C[C@H]2O)c1` (stereo partly drawn) [Example 52, (Z)-7-{(1R,2S,3R,5R)-5-Chloro-3-hydroxy-2-[3-(1-hydroxy-butyl)-phenoxymethyl]-cyclopentyl}-hept-5-enoic acid], for which the pEC50 was 6.63 on hEP2 [2], under 5.00 on hEP4 [3] and 7.24 on hEP2 [5]. Also, the negative logarithm of the Ki (pKi) on hEP4 [4] is under 5.00; at hEP2 [6] it was 6.02.
On to `O=C(O)CCC/C=C\C[C@@H]1[C@@H](COc2ccccc2CO)[C@H](O)C[C@H]1Cl` [Example 55, (Z)-7-[(1R,2S,3R,5R)-5-Chloro-3-hydroxy-2-(2-hydroxymethyl-phenoxymethyl)-cyclopentyl]-hept-5-enoic acid], for which the values for the negative logarithm of the EC50 (pEC50) on hEP2 [2], at hEP4 [3] and at hEP2 [5] were 5.02, 4.91 and 6.65, respectively. The values for the negative logarithm of the Ki (pKi) on hEP4 [4] and on hEP2 [6] were 5.82 and 5.39, respectively.
In the case of `O=C(O)CCC/C=C\C[C@@H]1[C@@H](COc2cccc3c2CCCC3O)[C@H](O)C[C@H]1Cl` (stereo partly drawn) [Example 60, (Z)-7-[(1R,2S,3R,5R)-5-Chloro-3-hydroxy-2-(5-hydroxy-5,6,7,8-tetrahydro-naphthalen-1-yloxymethyl)-cyclopentyl]-hept-5-enoic acid], the negative-log EC50 (pEC50) on hEP2 [2] is 7.77; on hEP4 [3], 5.16; on hEP2 [5], 9.00. In addition, the pKi on hEP4 [4] was 5.84; at hEP2 [6], 7.07.
With `CC(=O)OCc1cc(Cl)cc(OC[C@@H]2[C@@H](C/C=C\CCCC(=O)O)[C@H](Cl)C[C@H]2O)c1` [Example 64, (Z)-7-[(1R,2S,3R,5R)-2-(3-Acetoxymethyl-5-chloro-phenoxymethyl)-5-chloro-3-hydroxy-cyclopentyl]-hept-5-enoic acid], the negative-log EC50 (pEC50) at hEP2 [2] is 5.95; on hEP4 [3] it was 5.13; at hEP2 [5], 8.19. Also, the figures for the pKi on hEP4 [4] and at hEP2 [6] were 6.42 and 7.19, respectively.
For `O=C(O)CCC/C=C\C[C@@H]1[C@@H](COc2cc(Cl)cc(CO)c2)[C@H](O)C[C@H]1Cl` [Example 65, (Z)-7-[(1R,2S,3R,5R)-5-Chloro-2-(3-chloro-5-hydroxymethyl-phenoxymethyl)-3-hydroxy-cyclopentyl]-hept-5-enoic acid], the results for the negative logarithm of the EC50 (pEC50) on hEP2 [2], at hEP4 [3] and on hEP2 [5] were 6.28, 4.97 and 8.70, respectively. Besides, the pKi at hEP4 [4] was 6.30; at hEP2 [6], 7.19.
